Measured values reported in patent US20240025953A1, “COMPOSITIONS AND METHODS FOR INHIBITING ALPHA-SYNUCLEIN AGGREGATION” (Seelos Therapeutics, Inc., priority 2020, published 2024).
Where two headings read alike, the source gives them in different places. Ends that are not written are not given here.

Assays:
Assay type in all cases: in vitro ADME
[1] = Permeability in a Caco-2 assay; settings: human; for efflux ratio at 10 μM: read-out: Mean (B-A/A-B) Efflux Ratio
Method: (§1) Permeability of the S62 and S71 peptides were assessed in a Caco-2 assay using methanol.
(§2) Permeability Ranking: lower is <1×10−6 cm/s; higher is >1×10-6 cm/s.

Caco-2 = assay: Permeability in a Caco-2 assay; settings: Caco-2 assay using methanol
Method: as §1, §2

Stability in rat plasma = settings: in vitro in rat plasma, 1% TCA and methanol as quenchers
Method: S62 and S71 peptides (SEQ ID NOs: 3 and 4, respectively) were incubated in vitro in rat plasma with 1% TCA and methanol as quenchers for a period of time calculated to be reflective of the amount of time the peptides would be subject to in vivo conditions if administered to rats.

[2] = Caco-2, Assay Conc. 10 μM, without verapamil
[3] = Caco-2, Assay Conc. 10 μM, without verapamil, read-out: Mean A-B % Recovery
[4] = Caco-2, Assay Conc. 10 μM, without verapamil, read-out: Mean B-A % Recovery
[5] = Caco-2, with Verapamil 25 uM, Assay Conc. 10 μM, with Verapamil 25 uM, read-out: Mean A-B % Recovery
[6] = Caco-2, with Verapamil 25 uM, Assay Conc. 10 μM, with Verapamil 25 uM, read-out: Mean B-A % Recovery

Row | Papp A→B at 10 μM [1, 2] [×10⁻⁶ cm/s] | Papp B→A at 10 μM [1, 2] [×10⁻⁶ cm/s] | efflux ratio at 10 μM [1, 2] | recovery at 10 μM [1, 3] [%] | recovery at 10 μM [1, 4] [%] | recovery at 10 μM [1, 5] [%] | recovery at 10 μM [1, 6] [%] | recovery of the peptides after incubation in rat plasma (Stability in rat plasma) | Compound | Permeability (in words) (Caco-2)
1 | 0.391 | 1.03 | 2.65 | 87.1 | 95.2 |  |  |  | CNC(=C[N+](=O)[O-])NCCSCc1ccc(CN(C)C)o1 [Ranitidine, reference compound] | 
2 | 36.8 | 33.8 | 0.917 | 93 | 93.4 |  |  |  | CC(=O)CC(c1ccccc1)c1c(O)c2ccccc2oc1=O (stereo not shown) [Warfarin, reference compound] | 
3 |  |  |  | 70.1 | 92.5 | 59.7 | 91.3 | not high enough to detect | GAVVWGVTAVKK [S62, GAVVWGVTAVKK] | neither of the peptides exhibited permeability
4 |  |  |  | 91.4 | 74.7 | 80.7 | 92.7 | not high enough to detect | RAVVTGVTAVAE [S71, RAVVTGVTAVAE] | neither of the peptides exhibited permeability
